According to patent US20250346602A1, “LACTAM SUBSTITUTED IMIDAZOPYRIDAZINE IL-17A MODULATORS AND USES THEREOF” (DICE ALPHA, INC., priority 2022, published 2025):

Molecular target: T1, IL-17A/A (Homo sapiens, UniProt Q16552)
T1 construct: purchased Genscript Z03228
T1 sequence (Q16552 24-155): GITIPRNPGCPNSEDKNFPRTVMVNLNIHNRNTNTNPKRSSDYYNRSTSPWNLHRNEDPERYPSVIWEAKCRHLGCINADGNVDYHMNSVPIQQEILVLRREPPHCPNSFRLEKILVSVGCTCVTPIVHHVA
Experiment: IL-17A/A HEK-Blue cell assay
Assay type: cell-based
Settings: HEK-Blue IL-17A reporter cell line (HEK 293), IL-17A/A stimulation, 20 hours incubation, SEAP read at A630
In short: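 HEK293 reporter cells expressing IL-17RA, IL-17RC and Act1 were given titrated compound (top final 10, 1 or 0.3 uM; 0.1% DMSO) right before IL-17A/A and incubated 20 hours. NFκB-driven SEAP in the media was read at A630 with Quanti-Blue, and IC50 came from a 4-parameter nonlinear fit.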

Structure (SMILES)	IC50 [µM]
CC[C@@H](c1ccc(F)cc1)[C@H](NC(=O)c1ccnn1CC)c1cn2nc(CC3C[C@@H](C(F)(F)F)CNC3=O)ccc2n1 (stereo partly drawn) [Compound 168, 1-ethyl-N-((1S,2S)-2-(4-fluorophenyl)-1-(6-(((3R.5R)-2-oxo-5-(trifluoromethyl)piperidin-3-yl)methyl)imidazo[1,2-b]pyridazin-2-yl)butyl)-1H-pyrazole-5-carboxamide]	< 0.1
CCn1nccc1C(=O)N[C@H](c1cn2nc(CC3C[C@@H](C(F)(F)F)CNC3=O)ccc2n1)C1CCCCCC1 (stereo partly drawn) [Compound 169, N—((S)-cycloheptyl(6-(((3R.5R)-2-oxo-5-(trifluoromethyl)piperidin-3-yl)methyl)imidazo[1,2-b]pyridazin-2-yl)methyl)-1-ethyl-1H-pyrazole-5-carboxamide]	0.1 to 1
CCn1nccc1C(=O)N[C@H](c1cn2nc(CC3C[C@@H](C(F)(F)F)CNC3=O)ccc2n1)[C@@H]1C[C@H]2C[C@H]2C1 (stereo partly drawn) [Compound 170, N-((1S)-((1R,3S,5S)-bicyclo[3.1.0]hexan-3-yl)(6-(((5R)-2-oxo-5-(trifluoromethyl)piperidin-3-yl)methyl)imidazo[1,2-b]pyridazin-2-yl)methyl)-1-ethyl-1H-pyrazole-5-carboxamide]	> 1
CCn1nccc1C(=O)N[C@@H](c1cn2nc(CC3C[C@@H](C(F)(F)F)CNC3=O)ccc2n1)[C@@H]1C[C@H]2C[C@H]2C1 (stereo partly drawn) [Compound 171, N-((1R)-((1R,3S,5S)-bicyclo[3.1.0]hexan-3-yl)(6-(((5R)-2-oxo-5-(trifluoromethyl)piperidin-3-yl)methyl)imidazo[1,2-b]pyridazin-2-yl)methyl)-1-ethyl-1H-pyrazole-5-carboxamide]	0.1 to 1
CCn1nccc1C(=O)N[C@H](c1cn2nc(CC3C[C@@H](C(F)(F)F)CNC3=O)ccc2n1)C1CC(C2CC2)(C2CC2)C1 (stereo partly drawn) [Compound 172, N-((1S)-(3,3-dicyclopropylcyclobutyl)(6-(((5R)-2-oxo-5-(trifluoromethyl)piperidin-3-yl)methyl)imidazo[1,2-b]pyridazin-2-yl)methyl)-1-ethyl-1H-pyrazole-5-carboxamide]	> 1
CCn1nccc1C(=O)N[C@H](c1cn2nc(CC3C[C@H](C(F)(F)F)CNC3=O)ccc2n1)C1CCCCCC1 (stereo partly drawn) [Compound 177, N—((S)-cycloheptyl(6-(((5S)-2-oxo-5-(trifluoromethyl)piperidin-3-yl)methyl)imidazo[1,2-b]pyridazin-2-yl)methyl)-1-ethyl-1H-pyrazole-5-carboxamide]	< 0.1
CCn1nccc1C(=O)N[C@H](c1cn2nc(CC3C[C@@H](C(F)(F)F)CNC3=O)ccc2n1)C12CC(C)(C1)C2 (stereo partly drawn) [Compound 178, 1-ethyl-N-((1S)-(3-methylbicyclo[1.1.1]pentan-1-yl)(6-(((5R)-2-oxo-5-(trifluoromethyl)piperidin-3-yl)methyl)imidazo[1,2-b]pyridazin-2-yl)methyl)-1H-pyrazole-5-carboxamide]	> 1
CCn1nccc1C(=O)N[C@H](c1cn2nc(CC3C[C@@H](C(F)(F)F)CNC3=O)ccc2n1)[C@H]1C[C@@H](C2CC2)C1 (stereo partly drawn) [Compound 179, N-((1S)-((1S,3R)-3-cyclopropylcyclobutyl)(6-(((5R)-2-oxo-5-(trifluoromethyl)piperidin-3-yl)methyl)imidazo[1,2-b]pyridazin-2-yl)methyl)-1-ethyl-1H-pyrazole-5-carboxamide]	> 1
CCn1nccc1C(=O)N[C@H](c1cn2nc(CC3C[C@@H](C(F)(F)F)CNC3=O)c(C(C)C)cc2n1)C1CCC(F)(F)CC1 (stereo partly drawn) [Compound 180, N-((1S)-(4,4-difluorocyclohexyl)(7-isopropyl-6-(((5R)-2-oxo-5-(trifluoromethyl)piperidin-3-yl)methyl)imidazo[1,2-b]pyridazin-2-yl)methyl)-1-ethyl-1H-pyrazole-5-carboxamide]	< 0.1
CCn1nccc1C(=O)N[C@H](c1cn2nc(CC3C[C@@H](C(F)(F)F)CNC3=O)c(C(C)OC)cc2n1)C1CCC(F)(F)CC1 (stereo partly drawn) [Compound 183, N-((1S)-(4,4-difluorocyclohexyl)(7-(1-methoxyethyl)-6-(((5R)-2-oxo-5-(trifluoromethyl)piperidin-3-yl)methyl)imidazo[1,2-b]pyridazin-2-yl)methyl)-1-ethyl-1H-pyrazole-5-carboxamide]	< 0.1
CCn1nccc1C(=O)N[C@H](c1cn2nc(CC3C[C@@H](C(F)(F)F)CNC3=O)c(S(C)(=O)=O)cc2n1)C1CCC(F)(F)CC1 (stereo partly drawn) [Compound 184, N-((1S)-(4,4-difluorocyclohexyl)(7-(methylsulfonyl)-6-(((5R)-2-oxo-5-(trifluoromethyl)piperidin-3-yl)methyl)imidazo[1,2-b]pyridazin-2-yl)methyl)-1-ethyl-1H-pyrazole-5-carboxamide]	0.1 to 1
CCn1nccc1C(=O)N[C@H](c1cn2nc(CC3C[C@@H](C(F)(F)F)CNC3=O)c(OC(C)C)cc2n1)C1CCC(F)(F)CC1 (stereo partly drawn) [Compound 185, N-((1S)-(4,4-difluorocyclohexyl)(7-isopropoxy-6-(((5R)-2-oxo-5-(trifluoromethyl)piperidin-3-yl)methyl)imidazo[1,2-b]pyridazin-2-yl)methyl)-1-ethyl-1H-pyrazole-5-carboxamide]	< 0.1
CCn1nccc1C(=O)N[C@H](c1cn2nc(CC3C[C@@H](C(F)(F)F)CNC3=O)c(C(C)(C)O)cc2n1)C1CCC(F)(F)CC1 (stereo partly drawn) [Compound 186, N-((1S)-(4,4-difluorocyclohexyl)(7-(2-hydroxypropan-2-yl)-6-(((5R)-2-oxo-5-(trifluoromethyl)piperidin-3-yl)methyl)imidazo[1,2-b]pyridazin-2-yl)methyl)-1-ethyl-1H-pyrazole-5-carboxamide]	< 0.1
CCn1nccc1C(=O)N[C@H](c1cn2nc(CC3C[C@@H](C(F)(F)F)CNC3=O)c(C(=O)O)cc2n1)C1CCC(F)(F)CC1 (stereo partly drawn) [Compound 187, 2-((S)-(4,4-difluorocyclohexyl)(1-ethyl-1H-pyrazole-5-carboxamido)methyl)-6-(((5R)-2-oxo-5-(trifluoromethyl)piperidin-3-yl)methyl)imidazo[1,2-b]pyridazine-7-carboxylic acid]	0.1 to 1
CCn1nccc1C(=O)N[C@H](c1cn2nc(CC3C[C@@H](C(F)(F)F)CNC3=O)ccc2n1)C1CCCCC1 (stereo partly drawn) [Compound 191, N-((1S)-cyclohexyl(6-(((5R)-2-oxo-5-(trifluoromethyl)piperidin-3-yl)methyl)imidazo[1,2-b]pyridazin-2-yl)methyl)-1-ethyl-1H-pyrazole-5-carboxamide]	0.1 to 1
CCn1nccc1C(=O)N[C@H](c1cn2nc(CC3C[C@@H](C(F)(F)F)CNC3=O)ccc2n1)C1CC2(CC2)C1 (stereo partly drawn) [Compound 192, 1-ethyl-N—((1S)-(6-(((5R)-2-oxo-5-(trifluoromethyl)piperidin-3-yl)methyl)imidazo[1,2-b]pyridazin-2-yl)(spiro[2.3]hexan-5-yl)methyl)-1H-pyrazole-5-carboxamide]	> 1
CCn1nccc1C(=O)N[C@H](c1cn2nc(CC3C[C@@H](C(F)(F)F)CNC3=O)ccc2n1)C1CCC(F)(F)CC1 (stereo partly drawn) [Compound 193, N-((1S)-(4,4-difluorocyclohexyl)(6-(((5R)-2-oxo-5-(trifluoromethyl)piperidin-3-yl)methyl)imidazo[1,2-b]pyridazin-2-yl)methyl)-1-ethyl-1H-pyrazole-5-carboxamide]	> 1
CCn1nccc1C(=O)N[C@H](c1cn2nc(CC3C[C@@H](C(F)(F)F)CNC3=O)ccc2n1)[C@@H]1CCCC(F)(F)C1 (stereo partly drawn) [Compound 194, N-((1S)—((R)-3,3-difluorocyclohexyl)(6-(((5R)-2-oxo-5-(trifluoromethyl)piperidin-3-yl)methyl)imidazo[1,2-b]pyridazin-2-yl)methyl)-1-ethyl-1H-pyrazole-5-carboxamide]	> 1
CCn1nccc1C(=O)N[C@H](c1cn2ncc(CC3CCNC3=O)cc2n1)C1CCCCCC1 (stereo partly shown) [Compound 203, N-((1 S)-cycloheptyl(7-((2-oxopyrrolidin-3-yl)methyl)imidazo[1,2-b]pyridazin-2-yl)methyl)-1-ethyl-1H-pyrazole-5-carboxamide]	> 1
